Source: PubChem BioAssay AID330 (DTP/NCI, 2004)
Where “and” joins values, the source holds several entries; their conditions need not be identical. Equal values may be shown once. Inconclusive results and toxic doses are left out.

System: P388 leukemia ip, CD2F1 mice, survival T/C
Assay: NCI In Vivo Anticancer Drug Screen. Data for tumor model P388 Leukemia (intraperitoneal) in CD2F1 (CDF1) mice
Conditions: endpoint: median survival time, higher = longer survival
Summary of the method: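 Mice carrying the transplanted tumor received test compound or vehicle. Survival was recorded in each group, and the value is the treated-group measurement divided by that of the vehicle-treated control group.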

[1] = dose: 12.5 mg/kg/injection, schedule: Q01DX009 (ip), vehicle: Klucel (hydroxypropylcellulose) (HPC)
[2] = dose: 25.0 mg/kg/injection, schedule: Q01DX009 (ip), vehicle: Klucel (hydroxypropylcellulose) (HPC)
[3] = dose: 50.0 mg/kg/injection, schedule: Q01DX009 (ip), vehicle: Klucel (hydroxypropylcellulose) (HPC)
[4] = dose: 100.0 mg/kg/injection, schedule: Q01DX009 (ip), vehicle: Klucel (hydroxypropylcellulose) (HPC)
[5] = dose: 200.0 mg/kg/injection, schedule: Q01DX009 (ip), vehicle: Klucel (hydroxypropylcellulose) (HPC)
[6] = dose: 100.0 mg/kg/injection, schedule: Q01DX001 (ip), vehicle: saline
[7] = dose: 60.0 mg/kg/injection, schedule: Q01DX005 (ip), vehicle: saline with Tween-80
[8] = dose: 120.0 mg/kg/injection, schedule: Q01DX005 (ip), vehicle: saline with Tween-80
[9] = dose: 240.0 mg/kg/injection, schedule: Q01DX005 (ip), vehicle: saline with Tween-80
[10] = dose: 6.25 mg/kg/injection, schedule: Q01DX009 (ip), vehicle: saline
[11] = dose: 12.5 mg/kg/injection, schedule: Q01DX009 (ip), vehicle: saline
[12] = dose: 25.0 mg/kg/injection, schedule: Q01DX009 (ip), vehicle: saline
[13] = dose: 50.0 mg/kg/injection, schedule: Q01DX005 (ip), vehicle: saline with Tween-80
[14] = dose: 100.0 mg/kg/injection, schedule: Q01DX005 (ip), vehicle: saline with Tween-80
[15] = dose: 200.0 mg/kg/injection, schedule: Q01DX005 (ip), vehicle: saline with Tween-80
[16] = dose: 50.0 mg/kg/injection, schedule: Q01DX005 (ip), vehicle: saline
[17] = dose: 100.0 mg/kg/injection, schedule: Q01DX005 (ip), vehicle: saline
[18] = dose: 100.0 mg/kg/injection, schedule: Q04DX002 (ip), vehicle: saline with Tween-80
[19] = dose: 200.0 mg/kg/injection, schedule: Q04DX002 (ip), vehicle: saline with Tween-80

CC#CC#CC#C/C=C\CCC(=O)CC
T/C [1]: 95 % of control
T/C [2]: 95 % of control
T/C [3]: 95 % of control
T/C [4]: 100 % of control

CCCCNC(=O)NS(=O)(=O)c1ccc(N)cc1
T/C (dose: 50.0 mg/kg/injection, schedule: Q01DX009 (ip), vehicle: saline with Tween-80): 100 % of control
T/C (dose: 100.0 mg/kg/injection, schedule: Q01DX009 (ip), vehicle: saline with Tween-80): 105 % of control
T/C (dose: 200.0 mg/kg/injection, schedule: Q01DX009 (ip), vehicle: saline with Tween-80): 102 % of control

Nc1ncnc2c1nnn2C1OC(CO)C(O)C1O (configuration not stated)
T/C [3]: 157 % of control
T/C [4]: 100 % of control

COc1ccc2c(c1)CCC1C=NOC21 (configuration not stated)
T/C (dose: 50.0 mg/kg/injection, schedule: Q01DX005 (ip), vehicle: Klucel (hydroxypropylcellulose) (HPC)): 97 % of control
T/C (dose: 100.0 mg/kg/injection, schedule: Q01DX005 (ip), vehicle: Klucel (hydroxypropylcellulose) (HPC)): 103 % of control
T/C (dose: 200.0 mg/kg/injection, schedule: Q01DX005 (ip), vehicle: Klucel (hydroxypropylcellulose) (HPC)): 97 % of control

O=C(NC(=O)C(F)(F)C(F)(F)F)Nc1ccc(Cl)cc1
T/C [3]: 115 % of control
T/C [4]: 98 % of control
T/C [5]: 101 % of control

CCOCCC(N=NC(=S)NNC)c1ccccc1 (configuration not stated)
T/C [6]: 100 % of control
T/C (dose: 200.0 mg/kg/injection, schedule: Q01DX001 (ip), vehicle: saline): 94 % of control
T/C (dose: 400.0 mg/kg/injection, schedule: Q01DX001 (ip), vehicle: saline): 93 % of control

COc1cc2c(c(OC)c1OC)-c1ccc(OC)c(=O)cc1[C@@H](NC=O)CC2
T/C (dose: 0.25 mg/kg/injection, schedule: Q01DX009 (ip), vehicle: saline): 117 % of control

CC(C)(C)N=C(CCNC1CCCCC1)Nc1cccc(C(F)(F)F)c1
T/C (dose: 25.0 mg/kg/injection, schedule: Q01DX001 (ip), vehicle: saline): 98 % of control
T/C (dose: 50.0 mg/kg/injection, schedule: Q01DX001 (ip), vehicle: saline): 101 % of control
T/C (dose: 100.0 mg/kg/injection, schedule: Q01DX001 (ip), vehicle: saline with Tween-80): 101 % of control
T/C [6]: 113 % of control

C=C(C)CCCCOCOCCOC
T/C [7]: 99 % of control
T/C [8]: 99 % of control
T/C [9]: 97 % of control

C[N+]12CN3CN(CP(C3)C1)C2
T/C [10]: 99 % of control
T/C [11]: 100 % of control
T/C [12]: 101 % of control

CS(=O)CCC1C(=O)OC(C(C)(C)C)N1C(=O)c1ccccc1 (configuration not stated)
T/C [7]: 101 % of control
T/C [8]: 100 % of control
T/C [9]: 105 % of control

CC(=O)OCCCN1/C(=C/C=C2\CCC(/C=C/c3sc4cc5ccccc5cc4[n+]3CCCOC(C)=O)=C2N(c2ccccc2)c2ccccc2)Sc2cc3ccccc3cc21
T/C [1]: 110 % of control
T/C [2]: 110 % of control
T/C [3]: 111 % of control

Cc1cccc2c1nc(C)c1nc(-c3ccccc3)oc12
T/C (dose: 6.25 mg/kg/injection, schedule: Q01DX005 (ip), vehicle: saline with Tween-80): 101 % of control
T/C (dose: 12.5 mg/kg/injection, schedule: Q01DX005 (ip), vehicle: saline with Tween-80): 91 % of control
T/C (dose: 25.0 mg/kg/injection, schedule: Q01DX005 (ip), vehicle: saline with Tween-80): 90 % of control
T/C [13]: 89 % of control
T/C [14]: 89 % of control
T/C [15]: 94 % of control

CCC1=CC2CN(CCc3c([nH]c4ccccc34)C(C(=O)OC)(c3cc4c(cc3OC)N(C=O)C3C(O)(C(=O)NC)C(OC(C)=O)C5(CC)C=CCN6CCC43C65)C2)C1 (configuration not stated)
T/C (dose: 1.0 mg/kg/injection, schedule: Q01DX001 (ip), vehicle: water): 150 % of control
T/C (dose: 2.0 mg/kg/injection, schedule: Q01DX001 (ip), vehicle: water): 153 % of control
T/C (dose: 4.0 mg/kg/injection, schedule: Q01DX001 (ip), vehicle: water): 160 % of control

CC(=O)/C(=C\c1ccc(Cl)cc1)C(=O)CCN(C)C
T/C [16]: 112 % of control
T/C [17]: 118 % of control

CCCC(=O)NC1=C(N2CC2)C(=O)C(NC(=O)CCC)=C(N2CC2)C1=O
T/C (dose: 0.13 mg/kg/injection, schedule: Q01DX009 (ip), vehicle: saline with Tween-80): 120 % of control
T/C (dose: 0.2 mg/kg/injection, schedule: Q01DX009 (ip), vehicle: saline with Tween-80): 118 % of control
T/C (dose: 0.44 mg/kg/injection, schedule: Q01DX009 (ip), vehicle: saline with Tween-80): 112 % of control
T/C (dose: 1.0 mg/kg/injection, schedule: Q01DX009 (ip), vehicle: saline with Tween-80): 157 % of control
T/C (dose: 1.56 mg/kg/injection, schedule: Q01DX009 (ip), vehicle: saline with Tween-80): 181 % of control
T/C (dose: 2.5 mg/kg/injection, schedule: Q04DX003 (ip), vehicle: saline with Tween-80): 159 % of control
T/C (dose: 3.13 mg/kg/injection, schedule: Q04DX003 (ip), vehicle: saline with Tween-80): 154 % of control
T/C (dose: 5.0 mg/kg/injection, schedule: Q04DX003 (ip), vehicle: saline with Tween-80): 200 % of control
T/C (dose: 6.25 mg/kg/injection, schedule: Q01DX009 (ip), vehicle: saline with Tween-80): 86 % of control
T/C (dose: 6.25 mg/kg/injection, schedule: Q04DX003 (ip), vehicle: saline with Tween-80): 227 % of control
T/C (dose: 12.5 mg/kg/injection, schedule: Q04DX003 (ip), vehicle: saline with Tween-80): 104 % of control

CC(=O)N1C(=O)C2(Nc3cc4ccccc4cc3N2)c2ccccc21
T/C [7]: 94 % of control
T/C [8]: 93 % of control
T/C [9]: 92 % of control

N#Cc1cc2ccccc2nc1SN
T/C [16]: 100 % of control
T/C [17]: 99 % of control
T/C (dose: 200.0 mg/kg/injection, schedule: Q01DX005 (ip), vehicle: saline): 98 % of control

CN(C)C1CCC(NC2=CC(=O)C(NC3CCC(N(C)C)CC3)=CC2=O)CC1 (configuration not stated)
T/C (dose: 1.56 mg/kg/injection, schedule: Q01DX005 (ip), vehicle: distilled water + alcohol): 95 % of control
T/C (dose: 3.12 mg/kg/injection, schedule: Q01DX005 (ip), vehicle: distilled water + alcohol): 99 % of control
T/C (dose: 6.25 mg/kg/injection, schedule: Q01DX005 (ip), vehicle: distilled water + alcohol): 100 % of control and 96 % of control

[Ni+2].[O-]/C(=N\N=C/c1ccco1)c1ccccc1O.[O-]/C(=N\N=C/c1ccco1)c1ccccc1O
T/C (dose: 50.0 mg/kg/injection, schedule: Q04DX002 (ip), vehicle: saline with Tween-80): 86 % of control
T/C [18]: 93 % of control
T/C [19]: 93 % of control

Cc1ncc(C(=O)O)c2c1OC(C)(C)OC2
T/C [13]: 104 % of control
T/C [14]: 100 % of control
T/C [15]: 98 % of control

O=[N+]([O-])c1ccc(Cl)c(S(=O)(=O)Cl)c1
T/C [13]: 97 % of control
T/C [14]: 88 % of control
T/C [15]: 92 % of control

O=C1Nc2ccccc2/C1=C/c1ccc(Cl)c(Cl)c1
T/C (dose: 6.25 mg/kg/injection, schedule: Q01DX009 (ip), vehicle: Klucel (hydroxypropylcellulose) (HPC)): 96 % of control
T/C [1]: 95 % of control
T/C [2]: 92 % of control
T/C [4]: 86 % of control
T/C [5]: 90 % of control

COc1cc(-c2coc3c4c(ccc3c2=O)OC(C)(C)C=C4)c(OC)c2c1OCO2
T/C (dose: 10.0 mg/kg/injection, schedule: Q01DX009 (ip), vehicle: other): 111 % of control
T/C (dose: 20.0 mg/kg/injection, schedule: Q01DX009 (ip), vehicle: other): 102 % of control
T/C (dose: 40.0 mg/kg/injection, schedule: Q01DX009 (ip), vehicle: other): 123 % of control

CN1C(=O)C2(C)SSC1(C)C(=O)N2C
T/C [10]: 110 % of control
T/C [11]: 108 % of control
T/C [12]: 107 % of control

Cc1ccc(-n2c(O)c(N=Nc3ccc(Br)cc3)c(=O)n(-c3ccc(Br)cc3)c2=S)cc1
T/C [18]: 96 % of control
T/C [19]: 99 % of control
T/C (dose: 400.0 mg/kg/injection, schedule: Q04DX002 (ip), vehicle: saline with Tween-80): 94 % of control

O=C1N(c2ccccc2)C(=Nc2ccccc2)C(=Nc2ccccc2)N1c1ccccc1
T/C (dose: 50.0 mg/kg/injection, schedule: Q01DX005 (ip), vehicle: Klucel + Tween-80): 96 % of control
T/C (dose: 100.0 mg/kg/injection, schedule: Q01DX005 (ip), vehicle: Klucel + Tween-80): 91 % of control
T/C (dose: 200.0 mg/kg/injection, schedule: Q01DX005 (ip), vehicle: Klucel + Tween-80): 92 % of control
